One assay concerns the target T1, Histone deacetylase 8 (Schistosoma mansoni, UniProt A5H660).
T1 sequence (A5H660 whole entry): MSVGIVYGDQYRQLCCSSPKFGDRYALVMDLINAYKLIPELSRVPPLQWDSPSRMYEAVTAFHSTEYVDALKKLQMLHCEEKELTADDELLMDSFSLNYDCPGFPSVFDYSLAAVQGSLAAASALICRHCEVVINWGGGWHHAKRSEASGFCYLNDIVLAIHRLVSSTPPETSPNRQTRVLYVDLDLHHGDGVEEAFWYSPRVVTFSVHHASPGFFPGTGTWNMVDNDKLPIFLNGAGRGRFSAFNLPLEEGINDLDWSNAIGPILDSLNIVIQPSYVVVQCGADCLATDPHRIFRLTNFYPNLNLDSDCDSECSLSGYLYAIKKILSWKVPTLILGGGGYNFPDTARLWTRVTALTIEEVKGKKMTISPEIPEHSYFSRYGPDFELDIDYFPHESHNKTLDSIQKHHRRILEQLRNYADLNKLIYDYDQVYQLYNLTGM
The assay is described as follows: Inhibition of Schistosoma mansoni KDAC8 using (FAM)-labeled peptide as substrate after 60 mins by microfluidic assay. The settings on record: read-out: IC50.

The target in assay [1] is T2, Histone deacetylase 8 (Schistosoma mansoni) (UniProt A5H660).
T2 sequence (whole entry): T1 sequence (A5H660 whole entry)
The assay can be described thus: Inhibition of Schistosoma mansoni KDAC8 at 30 uM using (FAM)-labeled peptide as substrate after 60 mins by microfluidic assay.

The structures appear in SMILES notation. Active and inactive are the calls of the source. The calls are words filed in the database; no cut-off is given here.

For `CC(C)[C@@H]1N=C(c2ccccc2)c2ccccc2NC1=O`, the IC50 on Histone deacetylase 8 was > 30 µM. This molecule also gave an inhibition in assay [1] of 0%.
On the same counts, the results for `O=C(C[C@@H]1N=C(c2ccccc2)c2ccccc2NC1=O)NC(c1ccccc1)(c1ccccc1)c1ccccc1` are > 30 µM and 0%.
The like results for `NC(=O)C[C@@H]1N=C(c2ccccc2)c2ccccc2N(CCCCC(=O)NO)C1=O` were, in that order, > 30 µM and 0%.
The like results for `O=C(O)C[C@@H]1N=C(c2ccccc2)c2ccccc2NC1=O` were, in that order, > 30 µM and 0%.
Regarding `CC[C@H](C)[C@@H]1N=C(c2ccccc2)c2ccccc2NC1=O`, the IC50 on Histone deacetylase 8 is > 30 µM. The molecule also returned an inhibition in assay [1] of 0%.
On the same counts, the results for `CC(C)(C)OC[C@@H]1N=C(c2ccccc2)c2ccccc2N(CCCCC(=O)NO)C1=O` are > 30 µM and 15.7%.
On to `CSCC[C@@H]1N=C(c2ccccc2)c2ccccc2N(CCCCC(=O)NO)C1=O`, for which the IC50 at Histone deacetylase 8 was > 30 µM. For the same molecule, the inhibition in assay [1] was determined as 19.3%.
On the same counts, the results for `CC(C)[C@@H]1N=C(c2ccccc2)c2ccccc2N(CCCCC(=O)NO)C1=O` are > 30 µM and 20.6%.
Regarding `O=C(O)CC[C@@H]1N=C(c2ccccc2)c2ccccc2NC1=O`, the IC50 at Histone deacetylase 8 is > 30 µM. Further, the inhibition in assay [1] is 0%.
On the same counts, the results for `O=C(C[C@H]1N=C(c2ccccc2)c2ccccc2NC1=O)NO` are > 30 µM and 0%.
The like results for `CC(C)(C)OC(=O)C[C@H]1N=C(c2ccccc2)c2ccccc2NC1=O` were, in that order, > 30 µM and 0%.
For `O=C(CC[C@H]1N=C(c2ccccc2)c2ccccc2NC1=O)NO`, at Histone deacetylase 8, the IC50 is > 30 µM. Further, the inhibition in assay [1] came to 24%.
Take `CC(C)(C)SC[C@H]1N=C(c2ccccc2)c2ccccc2NC1=O`: on Histone deacetylase 8, the IC50 is > 30 µM. The inhibition in assay [1] worked out at 0%.
Consider `O=C(CCCCN1C(=O)[C@H](Cc2ccccc2)N=C(c2ccccc2)c2ccccc21)NO`, for which the IC50 at Histone deacetylase 8 was > 30 µM. The molecule further yielded an inhibition in assay [1] of 14.4%.
The like results for `O=C(O)CC[C@@H]1N=C(c2ccccc2)c2ccccc2N(CCCCC(=O)NO)C1=O` were, in that order, > 30 µM and 13.4%.
On the same counts, the results for `CC(C)(C)OC(=O)C[C@@H]1N=C(c2ccccc2)c2ccccc2N(CCCCC(=O)O)C1=O` are > 30 µM and 0%.
The like results for `Nc1ccccc1NC(=O)c1ccc(-c2cn(CCc3ccsc3)nn2)cc1` were, in that order, > 30 µM and “inactive”.
On to `CC(C)(C)OC(=O)NCCCC[C@@H]1N=C(c2ccccc2)c2ccccc2NC1=O`, for which the IC50 at Histone deacetylase 8 is > 30 µM. In assay [1], the inhibition is 0%.
The like results for `O=C(CCCCN1C(=O)CN=C(c2ccccc2)c2ccccc21)NO` were, in that order, > 30 µM and 39.7%.
On the same counts, the results for `CC(C)(C)Oc1ccc(C[C@@H]2N=C(c3ccccc3)c3ccccc3N(CCCCC(=O)O)C2=O)cc1` are > 30 µM and 0%.
On the same counts, the results for `O=C(CCCCN1C(=O)[C@H](CC(=O)NO)N=C(c2ccccc2)c2ccccc21)NO` are > 30 µM and 5.21%.
Regarding `CC(C)(C)SC[C@H]1N=C(c2ccccc2)c2ccccc2N(CCCCC(=O)NO)C1=O`, the IC50 at Histone deacetylase 8 is > 30 µM. In addition, the inhibition in assay [1] is 18.5%.
`O=C(O)CC[C@H]1N=C(c2ccccc2)c2ccccc2NC1=O`: the IC50 at Histone deacetylase 8 is > 30 µM. The molecule also displayed an inhibition in assay [1] of 0%.
Take `CC(C)(C)OC[C@@H]1N=C(c2ccccc2)c2ccccc2NC1=O`: at Histone deacetylase 8, the IC50 was > 30 µM. The molecule further showed an inhibition in assay [1] of 0%.
Take `COC(=O)CCCCN1C(=O)[C@H](CCCNC(=N)NS(=O)(=O)c2c(C)c(C)c3c(c2C)CC(C)(C)O3)N=C(c2ccccc2)c2ccccc21`: at Histone deacetylase 8, the IC50 is > 30 µM. Also, the inhibition in assay [1] amounted to 0%.
In the case of `CC(C)(C)OC(=O)CC[C@@H]1N=C(c2ccccc2)c2ccccc2NC1=O`, the IC50 on Histone deacetylase 8 was > 30 µM. Besides, in assay [1], the inhibition was 0%.
As for `COC(=O)CCCCN1C(=O)[C@H](C)N=C(c2ccccc2)c2ccccc21`, the IC50 at Histone deacetylase 8 is > 30 µM. The molecule also showed an inhibition in assay [1] of 0%.
As for `COC(=O)CCCCN1C(=O)[C@H](Cc2ccccc2)N=C(c2ccccc2)c2ccccc21`, the IC50 on Histone deacetylase 8 is > 30 µM. Besides, in assay [1], the inhibition came out at 0%.
On the same counts, the results for `COC(=O)CCCCN1C(=O)[C@H](CCC(=O)OC(C)(C)C)N=C(c2ccccc2)c2ccccc21` are > 30 µM and 0%.
For `CC(C)(C)OC[C@@H]1N=C(c2ccccc2)c2ccccc2N(CCCCC(=O)O)C1=O`, the IC50 at Histone deacetylase 8 is > 30 µM. For the same molecule, in assay [1], the inhibition turned out to be 0%.
On to `C[C@@H](O)[C@@H]1N=C(c2ccccc2)c2ccccc2N(CCCCC(=O)NO)C1=O`, for which the IC50 at Histone deacetylase 8 was > 30 µM. For the same molecule, in assay [1], the inhibition amounted to 0.91%.
As to `O=C(O)C[C@H]1N=C(c2ccccc2)c2ccccc2NC1=O`, the IC50 at Histone deacetylase 8 was > 30 µM. In assay [1], this molecule gave an inhibition of 0%.
Turning to `N=C(N)NCCC[C@@H]1N=C(c2ccccc2)c2ccccc2N(CCCCC(=O)NO)C1=O`, at Histone deacetylase 8, the half-maximal inhibitory concentration (IC50) was > 30 µM. In assay [1], this molecule gave an inhibition of 23.5%.
On the same counts, the results for `CSCC[C@@H]1N=C(c2ccccc2)c2ccccc2NC1=O` are > 30 µM and 0%.
On the same counts, the results for `CC[C@H](C)[C@@H]1N=C(c2ccccc2)c2ccccc2N(CCCCC(=O)O)C1=O` are > 30 µM and 0%.
On the same counts, the results for `O=C(CCCCN1C(=O)[C@H](CCC(=O)NO)N=C(c2ccccc2)c2ccccc21)NO` are > 30 µM and 33.5%.
As to `COC(=O)CCCCN1C(=O)[C@H]([C@@H](C)OCc2ccccc2)N=C(c2ccccc2)c2ccccc21`, the IC50 at Histone deacetylase 8 was > 30 µM. In assay [1], this molecule had an inhibition of 0%.
Consider `COC(=O)CCCCN1C(=O)[C@H](CC(C)C)N=C(c2ccccc2)c2ccccc21`, for which the IC50 on Histone deacetylase 8 was > 30 µM. For the same molecule, the inhibition in assay [1] came to 0%.
On the same counts, the results for `COC(=O)CCCCN1C(=O)[C@@H](CSC(C)(C)C)N=C(c2ccccc2)c2ccccc21` are > 30 µM and 0%.
On the same counts, the results for `O=C(CCCCN1C(=O)[C@H](CC(=O)NC(c2ccccc2)(c2ccccc2)c2ccccc2)N=C(c2ccccc2)c2ccccc21)NO` are 26.3 µM and 52.3%.
`O=C(O)C[C@@H]1N=C(c2ccccc2)c2ccccc2N(CCCCC(=O)NO)C1=O`: the IC50 at Histone deacetylase 8 is > 30 µM. In assay [1], this molecule returned an inhibition of 12.4%.
Take `COC(=O)CCCCN1C(=O)CN=C(c2ccccc2)c2ccccc21`: the IC50 at Histone deacetylase 8 is > 30 µM. The inhibition in assay [1] worked out at 0%.
Consider `CC(C)(C)Oc1ccc(C[C@@H]2N=C(c3ccccc3)c3ccccc3NC2=O)cc1`, for which the IC50 on Histone deacetylase 8 is > 30 µM. Further, the inhibition in assay [1] is 0%.
For the molecule `O=C1CN=C(c2ccccc2)c2ccccc2N1` [RO-052921], at Histone deacetylase 8, the IC50 is > 30 µM. Besides, the inhibition in assay [1] is 9.5%.
On the same counts, the results for `CSCC[C@@H]1N=C(c2ccccc2)c2ccccc2N(CCCCC(=O)O)C1=O` are > 30 µM and 0%.
Regarding `CC(C)(C)OC(=O)NCCCC[C@@H]1N=C(c2ccccc2)c2ccccc2N(CCCCC(=O)O)C1=O`, on Histone deacetylase 8, the IC50 is > 30 µM. The same molecule displayed an inhibition in assay [1] of 0%.
For `O=C(CC[C@@H]1N=C(c2ccccc2)c2ccccc2NC1=O)NO`, the IC50 at Histone deacetylase 8 is > 30 µM. The inhibition in assay [1] worked out at 25.9%.

Values taken from ChEMBL document CHEMBL4014283, “Structural insights of SmKDAC8 inhibitors: Targeting Schistosoma epigenetics through a combined structure-based 3D QSAR, in vitro and synthesis strategy” (Bioorg Med Chem, 2017).
